Experimental data from US20220408724A1, “METHOD FOR CONTROLLING METABOLISM OF BRANCHED FATTY ACID” (KAO CORPORATION, priority 2019, published 2022).
Where “and” joins values, the source holds several entries; their conditions need not be identical. Equal entries are not always repeated.

Legend:
Type in all cases: cell-based
Moraxella osloensis [1] = test: Examination example: suppression of metabolite 4-methyl-3-hexenoic acid, components (a) and (b)/(b′); details: single agent 100 μg/fabric g
Procedure: (§1) After culture on fabric prepared in the same manner as in the above (1), 3 ml of methanol was added, and extraction was carried out under ultrasonic irradiation for 30 minutes (20° C.). The extraction liquid was mixed with (a 1000 ppm methanol solution of) an ADAM reagent of Funakoshi Co., Ltd. at 1:1 (volume ratio) and left overnight under room temperature and dark place conditions. After that, 4-methyl-3-hexenoic acid as a metabolite from 14-methylhexadecanoic acid was quantified by HPLC. The quantification conditions are as follows.
Eluent: acetonitrile 61% (v/v), water 39% (v/v) Column temperature: 40° C. Sample injection volume: 10 μL Flow rate: 1.0 mL/min
The production amount of 4-methyl-3-hexenoic acid after culture on the fabric to which the metabolism controlling agent was added was quantified, and the ratio of the production amount to that of 4-methyl-3-hexenoic acid in the case of adding no metabolism controlling agent (control) was calculated as a metabolite suppression rate (%). The higher a numerical value thereof is, the more the metabolism is suppressed. Note that the metabolite suppression rate was determined by the following formula. In references 1-1, 2-1, 3-1 and 4-1, which are controls, the metabolite suppression rate is 0%.
Metabolite suppression rate(%)=100×[(D−C)/D] • C: production amount of metabolite of reference or examination example (μg/fabric g) • D: production amount of metabolite of control (μg/fabric g)

Micrococcus aloeverae [2] = test: Suppression of metabolite 2-methylbutanoic acid from 14-methylhexadecanoic acid
Procedure: as §1
The production amount of 4-methyl-3-hexenoic acid after culture on the fabric to which each metabolism controlling agent was added was quantified, and the ratio of the production amount to that of 4-methyl-3-hexenoic acid in the case of adding no metabolism controlling agent (control) was calculated as a metabolite suppression rate (%). The higher a numerical value thereof is, the more the metabolism is suppressed. Note that the metabolite suppression rate was determined by the following formula:
Metabolite suppression rate(%)=100×[(D−C)/D] • C: production amount of metabolite of example or comparative example (μg/fabric g) • D: production amount of metabolite of control (μg/fabric g)
(§2) The metabolism of 14-methylhexadecanoic acid by bacteria of the genus Micrococcus was tested in the same manner as in example 1.
(§3) In this example, Micrococcus aloeverae (strain isolated from clothing) was used as a microorganism.
(§4) Further, in this example, a bacterial suspension of 10^7 (CFU/ml) prepared by using an SCD liquid medium (NIHON PHARMACEUTICAL CO., LTD.) diluted to 1/10 with ion exchange water was used as a bacterial suspension.
Further, in this example, 2-methylbutanoic acid was quantified as a metabolite from 14-methylhexadecanoic acid, and the metabolite suppression rate was determined in the same manner as in example 1.
(§5) Note that, in this example, C12OH (1-dodecanol) was used as the metabolism controlling agent.

Moraxella osloensis [3] = test: Examination example: measurement of viable bacterial count; details: single agent 100 μg/fabric g
Procedure: (§6) After culture on fabric prepared in the same manner as in the above (1), 9 mL of an LP diluent (manufactured by NIHON PHARMACEUTICAL CO., LTD.) was added, and the extraction of the bacteria was carried out under ultrasound for 10 minutes. The extraction liquid was poured and mixed to an SCD-LP agar medium (NIHON PHARMACEUTICAL CO., LTD.), and culture was thereafter carried out at 37° C.; for a day. The number of colonies obtained on each piece of the fabric was counted, and a common logarithm value thereof was measured as the viable bacterial count. […] In addition, the […], the more the viable bacterial count of the microorganism is maintained.

Micrococcus aloeverae [4] = test: Measurement of viable bacterial count on fabric
Procedure: as §6, §2, §3, §4, §5

Rhodotorula mucilaginosa = test: Measurement of viable count on fabric (PDA agar)
Procedure: as §6
The metabolism of 14-methylhexadecanoic acid by yeast of the genus Rhodotorula was tested in the same manner as in example 1.
In this example, Rhodotorula mucilaginosa (strain isolated from clothing) was used as a microorganism.
Further, in this example, the bacteria were precultured under conditions of a PDA agar medium (Difco), 30° C.; and 48 hours.
Further, in this example, a bacterial suspension of 10^7 (CFU/ml) prepared by using a PDB liquid medium (Difco) diluted to 1/10 with ion exchange water was used as a bacterial suspension.
Further, in this example, after the extraction of the bacteria in (3) of example 1, they were poured and mixed to a PDA agar medium (Difco) and thereafter cultured at 30° C.; for 2 days, and the viable bacterial count was measured.
as §5

Micrococcus aloeverae [5] = test: Suppression of metabolism of 14-methylhexadecanoic acid on cotton fabric
Procedure: A methanol solution in which 14-methylhexadecanoic acid (SIGMA-ALDRICH) was dissolved was added dropwise to 3 cm×3 cm pieces of sterilized plain-weave cotton fabric to make it adhered to the fabric. The adhesion amount of 14-methylhexadecanoic acid was set to 10 μg per piece of the plain-weave cotton fabric (100 μg/fabric g).
Further, a methanol solution in which each metabolism controlling agent was dissolved was prepared and added dropwise to the fabric to which 14-methylhexadecanoic acid adhered, and it was thereafter dried for an hour. This fabric was placed in a sterilized screw tube bottle No. 3 (Maruemu Corporation) and 100 μl of the bacterial suspension was inoculated thereto, and culture was carried out under 37° C.; conditions for 21 hours.
3 ml of methanol was added to the screw tube bottle after culture, and extraction was carried out under ultrasonic irradiation for 30 minutes (20° C.). The extraction liquid was mixed with a (trimethylsilyl)diazomethane hexane solution (FUJIFILM Wako Pure Chemical Corporation) at 9:1 (volume ratio) and left overnight under room temperature and dark place conditions. After that, 14-methylhexadecanoic acid remaining on the fabric was quantified by GC. The quantification conditions for GC are as follows. • GC: Agilent 7890A • GC column: Agilent DB-1 30 m×250 μm×0.25 μm • Temperature rise condition: 50° C. (held for 3 minutes)-(10° C./min)-300° C. (held for 5 minutes) • Sample injection volume: 1 μl • Split ratio: 1:12 • Detector: FID
The residual amount of 14-methylhexadecanoic acid after culture on the fabric to which the metabolism controlling agent was added was quantified, and the ratio of the residual amount to that of 14-methylhexadecanoic acid in the case of adding no metabolism controlling agent (control) was calculated as a metabolism suppression rate (%). The higher a numerical value thereof is, the more the metabolism is suppressed. Note that the metabolism suppression rate was determined by the following formula:
Metabolism suppression rate(%)=[1−(100−A)/(100−B)]×100 • A: residual amount of 14-methylhexadecanoic acid of example or comparative example (μg/fabric g) • B: residual amount of 14-methylhexadecanoic acid of control (μg/fabric g)
as §2, §3, §4, §5

## CCCCCCCCCCCCO [Example C12OH, 1-dodecanol]
Moraxella osloensis [1]
  Product of metabolism of branched fatty acid: Metabolite suppression rate (%): 20%
  Product of metabolism of branched fatty acid: Production amount (μg/fabric g): 3.5 μg/fabric g
Micrococcus aloeverae [2]; agent 100 μg/fabric g
  Metabolite suppression rate (%): 21%
Micrococcus aloeverae [2]; agent 250 μg/fabric g
  Metabolite suppression rate (%): 79% and 74%
Micrococcus aloeverae [2]; agent 500 μg/fabric g
  Metabolite suppression rate (%): 75%
Micrococcus aloeverae [2]; agent 1000 μg/fabric g
  Metabolite suppression rate (%): 75%
Moraxella osloensis [3]
  Viable bacterial count (Log (cfu/fabric cm^2)): 6.2 Log (cfu/fabric cm^2)
Micrococcus aloeverae [4]; agent 100 μg/fabric g
  Bacterial count (Log (cfu/fabric cm^2)): 6.5 Log (cfu/fabric cm^2)
Micrococcus aloeverae [4]; agent 500 μg/fabric g
  Bacterial count (Log (cfu/fabric cm^2)): 5.6 Log (cfu/fabric cm^2)
Micrococcus aloeverae [4]; agent 1000 μg/fabric g
  Bacterial count (Log (cfu/fabric cm^2)): 5.6 Log (cfu/fabric cm^2)
Rhodotorula mucilaginosa; agent 250 μg/fabric g
  Bacterial count (Log (cfu/fabric cm^2)): 4.9 Log (cfu/fabric cm^2)
Rhodotorula mucilaginosa; agent 500 μg/fabric g
  Bacterial count (Log (cfu/fabric cm^2)): 4.7 Log (cfu/fabric cm^2)
Rhodotorula mucilaginosa; agent 1000 μg/fabric g
  Bacterial count (Log (cfu/fabric cm^2)): 4.8 Log (cfu/fabric cm^2)
Micrococcus aloeverae [5]; agent 100 μg/fabric g
  Metabolism suppression rate (%): 16.7%
Micrococcus aloeverae [5]; agent 250 μg/fabric g
  Metabolism suppression rate (%): 73% and 55.0%
Micrococcus aloeverae [5]; agent 500 μg/fabric g
  Metabolism suppression rate (%): 85.8%
Micrococcus aloeverae [5]; agent 1000 μg/fabric g
  Metabolism suppression rate (%): 86.9%
